In PMC8469169, “Design, Synthesis, and Cytotoxicity Assessment of [^64Cu]Cu-NOTA-Terpyridine Platinum Conjugate: A Novel Chemoradiotherapeutic Agent with Flexible Linker” (Nanomaterials, 2021):
Several values for one entry are separate records, joined by “and”; a condition that tells them apart may be missing. Equal values may be shown once. Read-outs that look alike come from different tables or passages of the source.

Tests used:
GM05757 cells [1] = assay: PrestoBlue (resazurin) cytotoxicity assay in GM05757 normal fibroblasts
Description: Human CRC cells HCT116 obtained from ATCC were cultured in Eagle’s minimal essential medium (EMEM), while Dulbecco’s modified Eagle medium (DMEM) was used for the normal fibroblast cell line GM05757 purchased from Coriell Institute. These culture media were supplemented with 10% FBS, 26.2 mM sodium bicarbonate, 2 mM L-glutamine, and a mix of penicillin (100 UI/mL) and streptomycin (100 μg/mL). Cells were incubated at 37 °C in a humidified environment with 5% CO2.
Cytotoxic activity was measured with the PrestoBlue method, which consists of a Resazurin-based metabolic assay. Briefly, HCT116 cells (2 × 10^4 cells per well) and GM05757 cells (5 × 10^3 cells per well) were seeded in a 96-well plate and incubated for 24 h. Then, the cells were treated with the Pt drugs at concentrations ranging from 0 to 500 µM for a subsequent 24, 48, and 72 h. […] The final concentration of DMSO was less than 1%. Then, the media were removed, and the cells were washed with warm PBS and exposed with PrestoBlue reagent for an incubation time of 20 min. Changes in cell viability were recorded by fluorescence (λex = 570 nm; λem = 610 nm). […] The fluorescence values measured for blank groups were subtracted from those obtained from the treated and untreated cells.

HCT116 cells [2] = assay: PrestoBlue (resazurin) cytotoxicity assay in HCT116 cells; format: cell-based, human
Description: Human CRC cells HCT116 obtained from ATCC were cultured in Eagle’s minimal essential medium (EMEM), while Dulbecco’s modified Eagle medium (DMEM) was used for the normal fibroblast cell line GM05757 purchased from Coriell Institute. […] Cells were incubated at 37 °C in a humidified environment with 5% CO2.
Cytotoxic activity was measured with the PrestoBlue method, which consists of a Resazurin-based metabolic assay. […] The final concentration of DMSO was less than 1%. Then, the media were removed, and the cells were washed with warm PBS and exposed with PrestoBlue reagent for an incubation time of 20 min. Changes in cell viability were recorded by fluorescence (λex = 570 nm; λem = 610 nm). […] The fluorescence values measured for blank groups were subtracted from those obtained from the treated and untreated cells.

HCT116 cells [3] = conditions: cited from earlier work
HCT116 cells [4] = assay: Cellular uptake and internalization in HCT116 cells (gamma counting); format: cell-based, human
Description: (§1) HCT116 cells (2 × 10^5 per well) were seeded in 12-well plates for 48 h in EMEM medium completed with 10% FBS at 37 °C until 80% confluence. Cells were washed twice with PBS, and then [^64Cu]Cu-NOTA-C3-TP (0.1 MBq, 50 µL) in EMEM completed medium was added and incubated from 15 min to 72 h to measure cellular uptake and internalization. At each time point, the radioactive media was removed, and cells were washed thrice with cold PBS. To measure the net cellular uptake or internalized fraction, surface-bound Pt drugs were removed by treating with 50 mM glycine in PBS pH 2.2 for 10 min, which was followed by a second cold PBS wash. Then, cells were harvested through trypsinization and counted with a hemocytometer. The radioactivity was measured in a gamma counter (HIDEX Automatic Gamma Counter 2014). The results were expressed as a percentage of added dose (AD) retained per 10^6 cells (%AD/10^6 cells). Parallel experiments were carried out at 4 °C to assess internalization inhibition and surface-bound fraction. For efflux studies, HCT116 cells were incubated for 1 h with 0.1 MBq of [^64Cu]Cu-NOTA-C3-TP. Then, the cells were washed with PBS and fresh culture medium was added. After 0 to 72 h, the medium was removed, and the cells were washed thrice with PBS. Finally, the cells were harvested, and radioactivity was counted with the gamma counter. The results were expressed as percentage of total activity retained by 10^6 cells relative to baseline at 0 min.

GM05757 cells [5] = conditions: high AMA
Description: For extraction of HCT116 and GM05757 cell nucleus and cytoplasm, we followed a previously reported procedure. After treatment of HCT116 cells with 1MBq of [^64Cu]Cu-NOTA-C3-TP for 24, 48 and 72 h, CSK buffer (0.5% Triton X-100, 300 mM sucrose, 100 mM NaCl, 1 mM ethylenediaminetetraacetic acid (EDTA), 2 mM MgCl2, and 10 mM HEPES, pH 6.8) were employed for nuclear extraction. After 5 min centrifugation, supernatant was separated, and the retained activity in nuclear plates was counted by a gamma counter (HIDEX Automatic Gamma Counter 2014).

HCT116 cells [6] = assay: Efflux assay in HCT116 cells; format: cell-based, human
Description: as §1, with “For efflux studies, HCT116 cells were incubated for 1 h with 0.1 MBq of [^64Cu]Cu-NOTA-C3-TP. Then, the cells were washed with PBS and fresh culture medium was added. After 0 to 72 h, the medium was removed, and the cells were washed thrice with PBS.” left out
For efflux studies, we followed the standard protocol of Fournier et al.. […] The activity retained by the cells was measured from 0 to 72 h post administration.

[7] = Pt release at physiological pH by mass spectroscopy; format: physicochemical; conditions: physiological pH 7.2, after 72 h
HCT116 cells [8] = assay: Subcellular (nucleus/cytoplasm) localization in HCT116 cells; format: cell-based, human; conditions: for Nucleus accumulation HCT116 versus GM05757 (fold reduction in GM05757) / Cytoplasmic distribution / Nucleus localization: high AMA; for Cytoplasmic distribution / Nucleus localization: HCT116
Description: For extraction of HCT116 and GM05757 cell nucleus and cytoplasm, we followed a previously reported procedure [28, 31]. After treatment of HCT116 cells with 1MBq of [^64Cu]Cu-NOTA-C3-TP for 24, 48 and 72 h, CSK buffer (0.5% Triton X-100, 300 mM sucrose, 100 mM NaCl, 1 mM ethylenediaminetetraacetic acid (EDTA), 2 mM MgCl2, and 10 mM HEPES, pH 6.8) were employed for nuclear extraction. After 5 min centrifugation, supernatant was separated, and the retained activity in nuclear plates was counted by a gamma counter (HIDEX Automatic Gamma Counter 2014).

[9] = Plasma stability by radio-TLC; format: in vitro ADME, mouse; conditions: room temperature; radio-iTLC; free 64Cu or fragments
Description: Plasma stability of the compound was assessed by incubating [^64Cu]Cu-NOTA-C3-TP in mouse plasma for 72 h at room temperature. Radio-TLC on C18 plates conducted on 0.1 M sodium citrate buffer at pH 5.5, as a developing solvent, was used to detect free ^64Cu. [^64Cu]Cu-NOTA-C3-TP and free [^64Cu]Cu(OAc)2 were employed as control standards.

[10] = read-out: EC50 GM05757 24 h, 24 h incubation
[11] = read-out: EC50 GM05757 48 h, 48 h incubation
[12] = read-out: EC50 GM05757 72 h, 72 h incubation
[13] = 24 h incubation, read-out: EC50 HCT116 24 h
[14] = 48 h incubation, read-out: EC50 HCT116 48 h
[15] = 72 h incubation, read-out: EC50 HCT116 72 h
[16] = HCT116, 37 °C, 24 h, % of total activity/10^6 cells
[17] = HCT116, 24 h, low AMA 0.8 to 4.0 MBq/nmol

F[P-](F)(F)(F)(F)F.O=C(O)CN1CCN(CCCOc2cc3[n+]4c(c2)-c2cccc[n+]2[Pt-2]4([Cl])[n+]2ccccc2-3)CCN(CC(=O)O)CC1 [NOTA-C3-TP]
EC50 (GM05757 cells [1]; [10]): 504 ± 4 µM | EC50 (GM05757 cells [1]; [11]): 202 ± 5 µM | EC50 (GM05757 cells [1]; [12]): 51 ± 3 µM | EC50 (HCT116 cells [2]; [13]): > 700 µM | EC50 (HCT116 cells [2]; [14]): 63 ± 2 µM | EC50 (HCT116 cells [2]; [15]): 24 ± 1 µM

O=C1[O][Pt]2([NH][C@@H]3CCCC[C@H]3[NH]2)[O]C1=O [Oxaliplatin, reference compound]
EC50 (GM05757 cells [1]; [10]): > 200 µM | EC50 (GM05757 cells [1]; [11]): 165 ± 9 µM | EC50 (GM05757 cells [1]; [12]): 65 ± 3 µM | EC50 (HCT116 cells [2]; [13]): > 200 µM | EC50 (HCT116 cells [2]; [14]): 64 ± 1 µM | EC50 (HCT116 cells [2]; [15]): 16 ± 4 µM

N.N.[Cl][Pt][Cl] [Cisplatin, reference compound]
Cellular accumulation (HCT116 cells [3]): 5 ng Pt/10^6 HCT116 cells | EC50 (GM05757 cells [1]; [10]): 88 ± 4 µM | EC50 (GM05757 cells [1]; [11]): 84 ± 2 µM | EC50 (GM05757 cells [1]; [12]): 77 ± 1 µM | EC50 (HCT116 cells [2]; [13]): 31 ± 2 µM | EC50 (HCT116 cells [2]; [14]): 42 ± 8 µM | EC50 (HCT116 cells [2]; [15]): 23 ± 3 µM

O=C([O-])CN1CCN(CCCOc2cc3[n+]4c(c2)-c2cccc[n+]2[Pt-2]4([Cl])[n+]2ccccc2-3)CCN(CC(=O)[O-])CC1.[64Cu+2] [[^64Cu]Cu-NOTA-C3-TP]
Internalization in HCT116 fold higher than in GM05757 (HCT116 cells [4]; 24 h, 37 °C): 3.1 fold | Internalization in HCT116 fold higher than in GM05757 (HCT116 cells [4]; 48 h, 37 °C): 1.8 fold | Internalization in HCT116 fold higher than in GM05757 (HCT116 cells [4]; 72 h, 37 °C): 2.1 fold | Uptake at 4 °C (passive accumulation), share of conjugate incubated (HCT116 cells [4]; HCT116, 4 °C): less than 1% | Cell-associated fraction higher than internalized fraction (HCT116 cells [4]; HCT116, 37 °C): 2 fold | Incubation time of maximum accumulation (HCT116 cells [4]; HCT116, 37 °C): 24 h | Internalized fraction (HCT116 cells [4]; HCT116, 37 °C, 15 min incubation, % of total activity/10^6 cells): 0.04 ± 0.02% | Cell-associated fraction (maximum) (HCT116 cells [4]; [16]): 40.0 ± 2.8% | Internalized fraction (maximum) (HCT116 cells [4]; [16]): 18.7 ± 2.8% | Cellular accumulation times larger than cisplatin (HCT116 cells [4]; HCT116, 24 h): 14.4 times | Cellular accumulation (maximum) (HCT116 cells [4]; HCT116, 24 h incubation, low AMA): 72 ng of Pt/10^6 HCT116 cells | Uptake at 4 °C lower than at 37 °C (HCT116 cells [4]; HCT116, passive accumulation): ~ 30 fold | Cytoplasmic distribution (GM05757 cells [5]; 24 h): 46 ± 6% | Nucleus localization (GM05757 cells [5]; 24 h): 1.5 ± 0.2% | Cytoplasmic distribution (GM05757 cells [5]; 48 h): 53 ± 6.5% | Nucleus localization (GM05757 cells [5]; 48 h): 3 ± 0.4% | Cytoplasmic distribution (GM05757 cells [5]; 72 h): 58.5 ± 8.3% | Nucleus localization (GM05757 cells [5]; 72 h): 3 ± 0.1% | Conjugate retained by cells (HCT116 cells [6]; 72 h post administration): more than 40% | Conjugate eliminated (efflux) (HCT116 cells [6]; first 6 h after 1 h incubation): About 42% | Pt released [7]: not seen | Cytotoxic activity on GM05757 lower than on HCT116 (fold) (GM05757 cells [1]; low AMA, 24 h): at least 3.4 fold | EC50 (GM05757 cells [1]; read-out: EC50 GM05757 24 h, 24 h, high AMA ≈120 MBq/nmol): > 0.066 µM | EC50 (GM05757 cells [1]; read-out: EC50 GM05757 24 h, 24 h, low AMA 0.8 to 4.0 MBq/nmol): > 200 µM | EC50 (GM05757 cells [1]; read-out: EC50 GM05757 48 h, 48 h, high AMA ≈120 MBq/nmol): 0.025 ± 0.005 µM | EC50 (GM05757 cells [1]; read-out: EC50 GM05757 72 h, 72 h, high AMA ≈120 MBq/nmol): 0.019 ± 0.004 µM | EC50 (GM05757 cells [1]; read-out: EC50 GM05757 72 h, 72 h, low AMA 0.8 to 4.0 MBq/nmol): 12 ± 2 µM | Increase in HCT116 nucleus uptake relative to [64Cu]Cu(OAc)2 (HCT116 cells [8]; 24 h): 2.8 fold | Nucleus accumulation HCT116 versus GM05757 (fold reduction in GM05757) (HCT116 cells [8]; 24 h): 5.7 fold | Increase in HCT116 nucleus uptake relative to [64Cu]Cu(OAc)2 (HCT116 cells [8]; 48 h): 4.9 fold | Nucleus accumulation HCT116 versus GM05757 (fold reduction in GM05757) (HCT116 cells [8]; 48 h): 4.4 fold | Increase in HCT116 nucleus uptake relative to [64Cu]Cu(OAc)2 (HCT116 cells [8]; 72 h): 3.7 fold | Nucleus accumulation HCT116 versus GM05757 (fold reduction in GM05757) (HCT116 cells [8]; 72 h): 4.1 fold | Cytoplasmic distribution (HCT116 cells [8]; 24 h): 76 ± 7.3% | Nucleus localization (HCT116 cells [8]; 24 h): 8.6 ± 3% and 8.6% | Cytoplasmic distribution (HCT116 cells [8]; 48 h): 61 ± 11% | Nucleus localization (HCT116 cells [8]; 48 h): 13.4 ± 4% | Cytoplasmic distribution (HCT116 cells [8]; 72 h): 61 ± 8.3% | Nucleus localization (HCT116 cells [8]; 72 h): 12.3 ± 1% | Viability of HCT116 cells (HCT116 cells [2]; 5 MBq, low AMA, 24 h incubation): 22% | Viability of HCT116 cells (HCT116 cells [2]; 8 MBq, low AMA, 24 h incubation): 17% | EC50 (HCT116 cells [2]; 24 h, high AMA ≈120 MBq/nmol, read-out: EC50 HCT116 24 h): 0.017 ± 0.004 µM | EC50 (HCT116 cells [2]; 24 h, low AMA 0.8 to 4.0 MBq/nmol, read-out: EC50 HCT116 24 h): 59 ± 3 µM | EC50 (HCT116 cells [2]; 48 h, high AMA ≈120 MBq/nmol, read-out: EC50 HCT116 48 h): 0.012 ± 0.006 µM | EC50 (HCT116 cells [2]; 48 h, low AMA 0.8 to 4.0 MBq/nmol, read-out: EC50 HCT116 48 h): 9 ± 2 µM | EC50 (HCT116 cells [2]; 72 h, high AMA ≈120 MBq/nmol, read-out: EC50 HCT116 72 h): 0.006 ± 0.002 µM | EC50 (HCT116 cells [2]; 72 h, low AMA 0.8 to 4.0 MBq/nmol, read-out: EC50 HCT116 72 h): < 5 µM | Fold more activity relative to [NatCu]Cu-NOTA-C3-TP and NOTA-C3-TP (HCT116 cells [2]; HCT116, 48 and 72 h, low AMA): 5–66 fold | Improvement of cytotoxicity with respect to [NatCu]Cu-NOTA-C3-TP (HCT116 cells [2]; HCT116, 24 h, high AMA ≈120 MBq/nmol): ~17,000 fold | Times more active than NOTA-C3-TP (HCT116 cells [2]; [17]): 12 times | Times more active than [NatCu]Cu-NOTA-C3-TP (HCT116 cells [2]; [17]): 5 times | Times more active than oxaliplatin (HCT116 cells [2]; [17]): 3.4 times | Improvement of cytotoxicity with respect to [NatCu]Cu-NOTA-C3-TP (HCT116 cells [2]; HCT116, 72 h, high AMA ≈120 MBq/nmol): > 55,000 fold and 55,000 fold | Selectivity toward cancer cells (HCT116 cells [2]; HCT116 vs GM05757, 24 h): 3.9 | Times higher efficiency toward HCT116 relative to GM05757 (HCT116 cells [2]; high AMA, 24 to 72 h): 2–4 times | Stability in mouse plasma [9]: stable up to 72 h
